# Experimental data published in ChEMBL document CHEMBL1201862, “PubChem BioAssay data set” (2004).
#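 Five compound concentrations were applied to cells in 96-well plates for 48 hours; endpoints were derived by simple linear interpolation of the resulting dose-response curve. At the GI50, growth is halved.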 Active and inactive are the calls of the source. No stated cut-off is given here; in the data, active = GI50 up to about 1.1 µM and inactive = higher. Starred links: 1 amine or outer side, 2 acyl side, 3 side chain; linkers in the order of their positions; H or OH if unused. Non-standard residues stand in square brackets, D forms with d. Residues, ends and D or L forms follow the SMILES beside them. ξ: configuration not given here. X24 = O=C(C(CC(O)CO)O[*:1])[*:2]; Ile(3ξ) = CCC(C)[C@H](N)C(=O)O; NMeV = CN[C@H](C(=O)O)C(C)C; NMeA = CN[C@@H](C)C(=O)O; βAla = NCCC(=O)O
# Tests used:
# Experiment in all cases: NCI tumour cell line growth inhibition, 48 h
# [1] = system: ACHN
# [2] = system: A549
# [3] = system: 786-0
# [4] = system: KM12
# [5] = system: M14
# [6] = system: MDA-MB-435
# [7] = system: HCT-116
# [8] = system: HCT-15
# [9] = system: TK-10
# [10] = system: SNB-75
# [11] = system: UO-31
# [12] = system: SW-620
# [13] = system: SK-OV-3
# [14] = system: UACC-257
# [15] = system: COLO 205
# [16] = system: CCRF-CEM
# [17] = system: NCI-H23
# [18] = system: A498
# [19] = system: SR
# [20] = system: SF-539
Compound,GI50 [1],GI50 [2],GI50 [3],GI50 [4],GI50 [5],GI50 [6],GI50 [7],GI50 [8],GI50 [9],GI50 [10],GI50 [11],GI50 [12],GI50 [13],GI50 [14],GI50 [15],GI50 [16],GI50 [17],GI50 [18],GI50 [19],GI50 [20]
[O-][S+](c1ccc(Cl)cc1)c1ccccc1C1=NCCN1 (configuration not stated),> 100 µM (inactive),> 100 µM (inactive),> 100 µM (inactive),> 100 µM (inactive),> 100 µM (inactive),> 100 µM (inactive),> 100 µM (inactive),> 100 µM,> 100 µM (inactive),> 100 µM (inactive),> 100 µM (inactive),> 100 µM (inactive),> 100 µM (inactive),> 100 µM (inactive),> 100 µM (inactive),> 100 µM (inactive),> 100 µM (inactive),,,
c1ccc(CCNc2ccccn2)nc1,> 100 µM (inactive),> 100 µM (inactive),> 100 µM (inactive),> 100 µM (inactive),> 100 µM (inactive),> 100 µM (inactive),> 100 µM (inactive),> 100 µM,> 100 µM (inactive),,> 100 µM (inactive),> 100 µM (inactive),> 100 µM (inactive),> 100 µM (inactive),> 100 µM (inactive),> 100 µM (inactive),> 100 µM (inactive),> 100 µM (inactive),,
CN(C)CCc1ccc(Cl)cc1Cl,> 100 µM (inactive),> 100 µM (inactive),> 100 µM (inactive),> 100 µM (inactive),> 100 µM (inactive),,> 100 µM (inactive),> 100 µM,> 100 µM (inactive),28.3 µM (inactive),> 100 µM (inactive),> 100 µM (inactive),> 100 µM (inactive),> 100 µM (inactive),> 100 µM (inactive),> 100 µM (inactive),> 100 µM (inactive),> 100 µM (inactive),> 100 µM (inactive),> 100 µM (inactive)
COc1ccc(C(=O)C(c2ccc(OC)cc2)C2C(=O)Oc3ccccc32)cc1 (configuration not stated),> 10 µM (inactive),> 10 µM (inactive),> 10 µM (inactive),> 10 µM (inactive),> 10 µM (inactive),,> 10 µM (inactive),> 10 µM,> 10 µM (inactive),> 10 µM (inactive),22.5 µM (inactive),> 10 µM (inactive),> 10 µM (inactive),> 10 µM (inactive),> 10 µM (inactive),> 10 µM (inactive),> 10 µM (inactive),> 10 µM (inactive),> 10 µM (inactive),> 10 µM (inactive)
C=CCNC(=S)N/C=C(/C(C)=O)C(=O)Nc1ccccc1C,> 100 µM (inactive),> 100 µM (inactive),> 100 µM (inactive),> 100 µM (inactive),> 100 µM (inactive),> 100 µM (inactive),> 100 µM (inactive),> 100 µM,> 100 µM (inactive),,> 100 µM (inactive),> 100 µM (inactive),> 100 µM (inactive),> 100 µM (inactive),> 100 µM (inactive),,> 100 µM (inactive),,,> 100 µM (inactive)
CCOC(=O)c1ccc2c(c1)Cc1cc([N+](=O)[O-])ccc1-2,29.9 µM (inactive),33.7 µM (inactive),86.5 µM (inactive),69.3 µM (inactive),97.1 µM (inactive),43.1 µM (inactive),59.4 µM (inactive),57.8 µM,24.4 µM (inactive),,30.4 µM (inactive),65.2 µM (inactive),29.6 µM (inactive),48.1 µM (inactive),23.2 µM (inactive),61.2 µM (inactive),32.4 µM (inactive),28.4 µM (inactive),,36.1 µM (inactive)
O=C(Cc1ccc([N+](=O)[O-])c([N+](=O)[O-])c1CC(=O)C(=O)Nc1cc(Cl)ccc1Cl)C(=O)Nc1cc(Cl)ccc1Cl,> 100 µM (inactive),> 100 µM (inactive),> 100 µM (inactive),> 100 µM (inactive),> 100 µM (inactive),,> 100 µM (inactive),21.7 µM,> 100 µM (inactive),> 100 µM (inactive),> 100 µM (inactive),37.9 µM (inactive),> 100 µM (inactive),> 100 µM (inactive),22.9 µM (inactive),17.9 µM (inactive),> 100 µM (inactive),> 100 µM (inactive),> 100 µM (inactive),> 100 µM (inactive)
NC(CO)c1ccc(OCc2ccccc2)cc1 (configuration not stated),> 100 µM (inactive),> 100 µM (inactive),> 100 µM (inactive),> 100 µM (inactive),> 100 µM (inactive),,> 78.7 µM (inactive),> 91.8 µM,> 100 µM (inactive),20.3 µM (inactive),44.3 µM (inactive),38.8 µM (inactive),> 100 µM (inactive),> 100 µM (inactive),> 100 µM (inactive),40.6 µM (inactive),> 100 µM (inactive),> 100 µM (inactive),31.2 µM (inactive),> 100 µM (inactive)
O=C1NC2C=CN(Cc3ccccc3)C=C2C(=O)N2CCCC12 (configuration not stated),> 100 µM (inactive),> 100 µM (inactive),> 100 µM (inactive),> 100 µM (inactive),> 100 µM (inactive),,> 100 µM (inactive),> 100 µM,> 100 µM (inactive),> 100 µM (inactive),> 100 µM (inactive),> 100 µM (inactive),> 100 µM (inactive),> 100 µM (inactive),> 100 µM (inactive),> 100 µM (inactive),> 100 µM (inactive),> 100 µM (inactive),> 100 µM (inactive),> 100 µM (inactive)
CS(=O)(=O)c1nc(-c2cc3c(c(S(C)(=O)=O)n2)CCCC3)cc2c1CCCCC2,> 100 µM (inactive),> 100 µM (inactive),> 100 µM (inactive),> 100 µM (inactive),> 100 µM (inactive),> 100 µM (inactive),> 100 µM (inactive),> 100 µM,> 100 µM (inactive),22.4 µM (inactive),0.0206 µM (active),> 100 µM (inactive),72.4 µM (inactive),> 100 µM (inactive),> 100 µM (inactive),> 100 µM (inactive),> 100 µM (inactive),,,
COc1ccc(-c2cc(C(=O)Nc3cccc(C(F)(F)F)c3)nc(S)n2)cc1,> 100 µM (inactive),> 100 µM (inactive),> 100 µM (inactive),> 100 µM (inactive),> 100 µM (inactive),,> 100 µM (inactive),> 100 µM,> 100 µM (inactive),> 100 µM (inactive),> 100 µM (inactive),> 100 µM (inactive),> 100 µM (inactive),> 100 µM (inactive),> 100 µM (inactive),> 100 µM (inactive),> 100 µM (inactive),> 100 µM (inactive),> 100 µM (inactive),> 100 µM (inactive)
N#C/C(=N\c1ccccc1N(C(=O)c1ccccc1)C(=O)c1ccccc1)c1ccccc1,> 60.5 µM (inactive),9.04 µM (inactive),> 91.6 µM (inactive),3.62 µM (inactive),> 100 µM (inactive),,6.43 µM (inactive),5.14 µM,> 100 µM (inactive),> 100 µM (inactive),> 55.5 µM (inactive),6.52 µM (inactive),> 100 µM (inactive),> 100 µM (inactive),> 42 µM (inactive),2.25 µM (inactive),> 62.5 µM (inactive),> 59.2 µM (inactive),2.4 µM (inactive),> 100 µM (inactive)
C/C=C1\C(=O)OC2CCN3CCC(COC(=O)C(C)(O)C(C)C1O)C23 (configuration not stated),> 100 µM (inactive),> 100 µM (inactive),> 100 µM (inactive),> 100 µM (inactive),> 100 µM (inactive),> 100 µM (inactive),> 100 µM (inactive),> 100 µM,> 100 µM (inactive),> 100 µM (inactive),> 100 µM (inactive),> 100 µM (inactive),> 100 µM (inactive),> 100 µM (inactive),> 100 µM (inactive),,> 100 µM (inactive),> 100 µM (inactive),,> 100 µM (inactive)
CCOC(=O)c1cnc(-n2[nH]c(C)c(CCO)c2=O)[nH]c1=O,> 100 µM (inactive),> 100 µM (inactive),> 100 µM (inactive),> 100 µM (inactive),> 100 µM (inactive),> 100 µM (inactive),> 100 µM (inactive),> 100 µM,> 100 µM (inactive),88.3 µM (inactive),> 100 µM (inactive),> 100 µM (inactive),> 100 µM (inactive),> 100 µM (inactive),> 100 µM (inactive),> 100 µM (inactive),> 100 µM (inactive),,,> 100 µM (inactive)
CCC(C)[C@@H]1NC(=O)[C@@H]2CCCN2C(=O)C(CC(O)CO)OC(=O)CCNC(=O)[C@H](C)N(C)C(=O)[C@H](C(C)C)N(C)C1=O (some centres not stated) (cyclo([Ile(3ξ)][NMeV][NMeA][βAla][X24]P)),,> 100 µM (inactive),> 100 µM (inactive),> 100 µM (inactive),> 100 µM (inactive),,> 100 µM (inactive),> 100 µM,> 100 µM (inactive),> 100 µM (inactive),> 100 µM (inactive),> 100 µM (inactive),> 100 µM (inactive),> 100 µM (inactive),> 100 µM (inactive),35.8 µM (inactive),> 100 µM (inactive),> 100 µM (inactive),> 100 µM (inactive),> 100 µM (inactive)
